According to patent US20030092760A1, “Therapeutic agent for renal failure” (Toray Industries, Inc., priority 2001, published 2003):

Legend:
[1] = test system: glomerulonephritis model rats in renal failure stage; assay: Glomerulonephritis model rats, renal failure stage, oral administration; conditions: for Increase in urinal total protein excretion (in words): renal failure stage, two weeks through four weeks after induction
Protocol: (§1) Eight-week-old male WKY rats (Charles River Japan Inc.) were administered intravenously with rabbit anti-rat glomerular basement membrane antiserum to induce glomerulonephritis. […] The frequency of the administration was twice a day for beraprost sodium and captopril and once a day for prednisolone. After the initial administration of a drug, urinary total protein excretion (which is a measure of renal functions) was determined.

[2] = test system: ⅚ nephrectomized rat model; assay: ⅚ nephrectomized rat model: observation of renal tissue images (histopathological change); assay type: in vivo, Wistar rats; conditions: 50 μg/kg; number of animals with change in 8 animals per group; five weeks after initial administration
Protocol: The effect of beraprost sodium on a ⅚ nephrectomized rat model, which has been widely used as a model animal for renal failure, was examined. Two-thirds of the left kidney was removed from each of 4-week-old male Wistar rats (Charles River Japan Inc.) with a razor, and all of the right kidney was then removed therefrom one week after. Three weeks after the initial surgery, blood was collected from each rat through the tail vein and serum creatinine and BUN levels were determined from the blood. At this point of time, the urine was also collected for 24 hours to determine the mass of proteins in the urine. The rats were allocated to one of the treatment groups by the stratifying continuous randomization method based on the mass of proteins in the urine and the body weight (n=8 per group). There was observed little difference in the initial values of blood creatinine and BUN values among the rats. Three weeks after the initial surgery, beraprost sodium or captopril (SIGMA, i.e., a positive control) was orally administered to each rat twice a day everyday, beginning the day on which administration of a drug was started and continued through five weeks after the administration. The determination of the renal functions was performed both three weeks and five weeks after the initial administration of a drug. The photographic images of the renal tissue were observed only five weeks after the initial administration. […] Five weeks after the initial administration, more exacerbation of chronic renal failure was observed. […] The same tendency was shown five weeks after the initial administration (Table 2).

[3] = test system: ⅚ nephrectomized rat model; assay: Effect on ⅚ nephrectomized rat model: renal functions; assay type: in vivo, Wistar rats; conditions: 50 mg/kg oral twice a day
Protocol: The effect of beraprost sodium on a ⅚ nephrectomized rat model, which has been widely used as a model animal for renal failure, was examined. Two-thirds of the left kidney was removed from each of 4-week-old male Wistar rats (Charles River Japan Inc.) with a razor, and all of the right kidney was then removed therefrom one week after. Three weeks after the initial surgery, blood was collected from each rat through the tail vein and serum creatinine and BUN levels were determined from the blood. At this point of time, the urine was also collected for 24 hours to determine the mass of proteins in the urine. The rats were allocated to one of the treatment groups by the stratifying continuous randomization method based on the mass of proteins in the urine and the body weight (n=8 per group). […] Three weeks after the initial surgery, beraprost sodium or captopril (SIGMA, i.e., a positive control) was orally administered to each rat twice a day everyday, beginning the day on which administration of a drug was started and continued through five weeks after the administration. The determination of the renal functions was performed both three weeks and five weeks after the initial administration of a drug. The photographic images of the renal tissue were observed only five weeks after the initial administration.

[4] = test system: glomerulonephritis model rats in inflammatory stage; assay: Glomerulonephritis model rats, inflammatory stage, oral administration; conditions: for Urinary total protein excretion: 7 days after induction (1 week after initial administration); for Increase in urinal total protein excretion (in words): day 1 through day 7 after induction
Protocol: as §1

[5] = test system: renal failure rat models of which the primary disease is glomerulonephritis; assay: Renal failure rat models of which the primary disease is glomerulonephritis, subcutaneous osmotic pump; assay type: in vivo, WKY rats; conditions: Table 5
Source text: Renal failure rat models of which the primary disease was glomerulonephritis were used to examine the effect of different 4,8-inter-m-phenylene prostaglandin I2 derivatives including beraprost sodium on the models. […] Two weeks after the induction, blood was collected from each rat through the tail vein to determine blood creatinine and BUN levels. […] Four types of 4,8-inter-m-phenylene prostaglandin I2 derivatives in total, including beraprost sodium, were individually administered subcutaneously to the rats from the back continuously with an osmotic pump (ALZET) for one week, beginning two weeks after induction of glomerulonephritis and continued through three weeks after the induction. The renal functions (i.e., blood creatinine and BUN levels) were determined one week after the initial administration of a drug.

[6] = five weeks after the administration of a drug
[7] = three weeks after the administration of a drug
[8] = 60 μg/kg group, 2 weeks after induction (before administration)
[9] = 60 μg/kg s.c. osmotic pump, 3 weeks after induction (1 week after the initial administration)

Compound: C[C@H](CS)C(=O)N1CCC[C@H]1C(=O)O [Captopril, captopril, reference compound]
- Urinary total protein excretion ([1]; 50 mg/kg group, renal failure stage Exp. 2, 2 weeks after induction (before administration)): 318 ± 22 mg/24 hr
- Urinary total protein excretion ([1]; 50 mg/kg oral twice a day, renal failure stage Exp. 2, 4 weeks after induction (2 week after initial administration)): 504 ± 51 mg/24 hr
- Urinary total protein excretion ([1]; 100 mg/kg group, renal failure stage Exp. 2, 2 weeks after induction (before administration)): 325 ± 6 mg/24 hr
- Urinary total protein excretion ([1]; 100 mg/kg oral twice a day, renal failure stage Exp. 2, 4 weeks after induction (2 week after initial administration)): 517 ± 33 mg/24 hr
- Increase in urinal total protein excretion (in words) [1]: no effective prevention
- Framework: Infiltration of mononuclear cells [2]: 7
- Renal corpuscle: Cellular filling in glomerulus [2]: 4
- Renal corpuscle: Coagulation of glomeruli in Bowman's capsule [2]: 2
- Renal corpuscle: Deposition of PAS + materials in Bowman's capsule [2]: 1
- Renal corpuscle: Epidermal growth in Bowman's capsule [2]: 2
- Renal corpuscle: Glomerular hypertrophy [2]: 1
- Renal corpuscle: Glomerulosclerosis [2]: 2
- Uriniferous tuble: Basophilic degeneration of tubules [2]: 6
- Uriniferous tuble: Proliferation of proximal tubules [2]: 8
- Uriniferous tuble: Proteinaceous urinary casts [2]: 4
- Uriniferous tuble: Tubular dilation [2]: 8
- Blood urea nitrogen [3, 6]: 47.8 ± 5.2 mg/dL
- Urinary protein excretion [3, 6]: 255.5 ± 76.6 mg/24 hr/kgBW
- Blood urea nitrogen [3, 7]: 51.4 ± 3.7 mg/dL
- Urinary protein excretion [3, 7]: 136.8 ± 29.9 mg/24 hr/kgBW
- Urinary total protein excretion ([4]; 50 mg/kg oral twice a day): 75 ± 14 mg/24 hr
- Increase in urinal total protein excretion (in words) [4]: effective prevention

Compound: O=C([O-])CCCc1cccc2c1OC1CC(O)C(C#CC(O)C3CCCCC3)C21.[Na+] (stereo not shown) [Compound 1]
- BUN [5, 8]: 29 ± 2 mg/dL
- Blood creatinine [5, 8]: 0.44 ± 0.05 mg/dL
- BUN [5, 9]: 27 ± 2 mg/dL
- Blood creatinine [5, 9]: 0.41 ± 0.02 mg/dL

Compound: C[C@]12C=CC(=O)C=C1CC[C@@H]1[C@@H]2[C@@H](O)C[C@@]2(C)[C@H]1CC[C@]2(O)C(=O)CO [Prednisolone, prednisolone]
- Urinary total protein excretion ([1]; 2 mg/kg group, renal failure stage Exp. 1, 2 weeks after induction (before administration)): 368 ± 20 mg/24 hr
- Urinary total protein excretion ([1]; 2 mg/kg oral once a day, renal failure stage Exp. 1, 3 weeks after induction (1 week after initial administration)): 456 ± 78 mg/24 hr
- Increase in urinal total protein excretion (in words) [1]: no effective prevention
- Urinary total protein excretion ([4]; 2 mg/kg oral once a day): 38 ± 8 mg/24 hr
- Increase in urinal total protein excretion (in words) [4]: effective prevention
